Laboratory results as given in patent US20240331158A1, “CELL PAINTING AND ANALYSIS IN 3D CELLULAR MODELS” (priority 2023, published 2024).
Where a name gives a salt, the structure may show the parent alone. Read-outs that look alike come from different tables or passages of the source.

Key:
TU-BcX-4IC tumoroids [1] = assay: Secondary follow-up 3D assay, 7-point concentration curves, tumoroid disintegration measurement; assay type: cell-based, human; settings: Homo sapiens, TU-BcX-4IC, 120 h
Description: 10 compounds, including panobinostat, carfilzomib, and bortezomib were tested across 7 concentrations in the 1-10000 nM range. Spheroids were treated for 5 days with these compounds, then stained as described above (FIG. 4). […] EC50 values (Table 2) were determined using tumoroid disintegration measurement (nuclear count in projection images).
Automated staining of spheroids was performed for one hour. After staining, dye solution was replaced with 1×PBS.

TU-BcX-4IC 2D culture [2] = assay: Imaging read-out, 2D culture; settings: Homo sapiens, 120 h, read-out: EC50, Imaging 2D
Description: (§1) Cell metabolism may be measured by ATP level as another readout for effects of anti-cancer drugs that is related to cytotoxicity. In the present examples, a subset of 12 compounds were used for evaluation of compound effects, using the CellTiter-Glo 3D assay (Promega), which detects ATP levels. Compounds may be tested using 7 point 5× dilutions starting from 100 uM. In the present examples, compound effects on 2D culture and 3D cultures were compared, using imaging and CellTiter-Glo 3D methods. Cultures were set up in parallel, using same cell number (2000). Cultures were allowed to grow for 48 hours, then treated with compounds for 5 days.
(§2) Images were analyzed using MetaXpress Software (Molecular Devices). Count Nuclei or Cell Scoring application modules were used for nuclear count live/dead assessment, or evaluation of cell number positive for specific markers. Output measurements included spheroid width, spheroid area, average intensity for calcein AM or EthD-III, counts of all nuclei, and evaluation of average nuclear size and average intensities. In addition, calcein AM-positive cells were counted, and their area and intensity values were recorded. In addition to cell count, areas and intensities could be determined for live (EthD-III negative) and dead (EthD-III positive) cells.

TU-BcX-4IC 3D cultures [3] = assay: CellTiter-Glo 3D ATP assay, 3D culture; settings: Homo sapiens, TU-BcX-4IC, 120 h, read-out: EC50, ATP 3D
Description: (§3) Cell metabolism may be measured by ATP level as another readout for effects of anti-cancer drugs that is related to cytotoxicity. […] Compounds may be tested using 7 point 5× dilutions starting from 100 uM. In the present examples, compound effects on 2D culture and 3D cultures were compared, using imaging and CellTiter-Glo 3D methods. Cultures were set up in parallel, using same cell number (2000). Cultures were allowed to grow for 48 hours, then treated with compounds for 5 days.

TU-BcX-4IC 3D cultures [4] = assay: Imaging read-out, 3D culture; settings: Homo sapiens, 120 h, read-out: EC50, Imaging 3D
Description: as §1, §2

TU-BcX-4IC 2D culture [5] = assay: CellTiter-Glo 3D ATP assay, 2D culture; settings: Homo sapiens, TU-BcX-4IC, 120 h, read-out: EC50, ATP 2D
Description: as §3

TU-BcX-4IC tumoroids [6] = assay: Library screening of NCI approved anti-cancer drugs: tumoroid integrity/disintegration by nuclear count in projection images (viability/spheroid disintegration assay); settings: for minimal effective concentration: Homo sapiens, TU-BcX-4IC, 120 h, read-out: Effective concentration, 3D tumoroids, 5 days treatment, tumoroid integrity by nuclear count, tested at 10 nM to 100 uM; for Viability HIT?: also hit in viability/spheroid disintegration assay, 10 μM
Description: In addition, positive and negative controls were included in the test plates.
During incubation with compounds, tumoroids were monitored daily using TL imaging. Image analysis allowed characterization of tumoroid size, diameter, compactness, and integrity, as well as optical density (FIG. 2B, FIG. 7). Images of tumoroids were taken prior to compound treatment, and during day 3 and day 5 of compound treatment. For the end point assay, tumoroids were stained with viability and nuclear dyes on day 5 of compound treatment. Cells were stained with a combination of Hoechst, calcein AM, and Ethidium Homodimer III (EthD-III) and analyzed using high content imaging for complex phenotypic analysis; a subset of plates was set aside for additional assays including Cell Painting.
Images of organoids were taken with a 10× objective using Z-stack with a step size of 8 mm. Nuclei, live cells, and dead cells of stained cells were detected using DAPI, FITC, and TexasRed channels respectively. Maximum projection images were created from Z-stacks and analyzed as described in Methods. Multiple read-outs were generated characterizing spheroid area, diameter, intensities, and cell viability. In addition, cells inside each spheroid were counted using a nuclear stain. […] Suspended cells were plated into U-shape 384 well plates using a Biomek i7 automated liquid handler, incubated for 48 hours, and then treated with compounds, stained, and imaged. The protocols for compound additions, media, and staining included gentle media dispensing processes. Consecutively, tumoroids were cultured and monitored by automated imaging. Additionally, use of a collaborative robot enabled moving plates from the incubator to the imaging system, where transmitted light imaging or fluorescent imaging protocols were initiated.
For screening the compound library, maximum projection images may be employed. Spheroid disintegration is visible as an increase of spheroid size, in contrast to nicely shaped, round images of intact spheroids. Tumoroid disintegration can be described by several measurements: for example, increase in organoid area/diameter. Most accurate measurements may be done by counting cells or nuclei inside organoids using maximum projection images. […] Disintegrated tumoroids are made up of cells which are not held together in a tight aggregate but instead are loosely piled up in the well bottom resulting in 1) an increased projected area and 2) an increase in nuclear count in the projection images.
Simple nuclei count analysis in projection images was used as a reliable surrogate marker for organoid integrity/dis-integration.

TU-BcX-4IC tumoroids [7] = assay: Cell Painting assay adapted for 3D tumoroids, phenotypic distance score and cluster analysis; settings: 10 μM, phenotypic distance relative to DMSO controls
Description: For phenotypic profiling, the tumoroids were treated with a single 10 μM concentration of compound, using the methods described above. Notable changes in the staining protocol included increased times for dye incubation, fixation, and permeabilization. […] Images were acquired with Z-stacks using 20× magnification, and the analysis was carried out on projection (maximum) images.
Unlike the previous analysis that included cell count or live-dead evaluation, multiple read-outs may be collected from the whole spheroid to form their phenotypic profile. […] Instead, the spheroid images may also acquired in transmitted light (bright field), and these images may be used to identify the spheroid structures using a deep learning-based image segmentation approach which may improve the analysis. Features extracted from each spheroid may include object morphologies, intensities, and texture measurements for, e.g., the six cell stains and bright field images.
To determine hits from the assay, a phenotypic distance score may be calculated based on the PCA (principal component analysis) components.
This score is a measure of the phenotypic effect of the compounds on the tumoroids relative to the controls. All hits may then be clustered based on their phenotypic profiles using the normalized principal component scores.
To image the organoids labeled with the cell painting dyes, the ImageXpress Confocal HT.ai system, equipped with a laser light source, was used for image acquisition. The confocal mode (pinhole size 60 μm) was used to image organoids with a 20× Plan Apo Lambda, NA 0.75 objective, with z-stacking enabled (5p m step size). The maximum projection image was selected in the acquisition setup.
Images were analyzed using MetaXpress Software (Molecular Devices). […] For the Cell Painting analysis, image analysis was done in the IN Carta image analysis software. To segment the organoids, a deep learning-based model was created based on the TL channel to segment individual organoids. Following segmentation, measurements that include intensity, shape, area, and texture were extracted from all 6 fluorescent channels. In total, 210 analytical features were obtained from each organoid.
The plate was first incubated with MitoTracker DeepRed (500 nM) for 2 hours. The samples were fixed with 4% paraformaldehyde (PFA) in HBSS for 60 minutes. All wash steps were carried out by exchanging half the volume in each well with HBSS to minimize displacement of the organoids from the center of the well.
Measurements from IN Carta were exported as a CSV file and uploaded into StratoMineR (Core Life Analytica), a web-based data analytics platform for hit picking and phenotypic clustering.

TU-BcX-4IC tumoroids [8] = assay: Label-free transmitted light imaging of tumoroids, deep learning segmentation (IN Carta); assay type: cell-based, human; settings: 10 uM, 5 days, no staining, 10× objective
Description: Images were analyzed using SYNAP module of InCartasoftware (Molecular Devices). Analysis mask shown in yellow.
A deep learning-based segmentation (IN Carta Image Analysis Software) approach was used to find all tumoroid objects in transmitted light, either intact or affected. Following segmentation and data extraction, a machine learning tool was utilized to classify all tumoroids into intact, intermediate or severely affected categories. Affected tumoroids were flagged by increase in the object areas (criteria were set as AVERAGE 2*STDEV from the DMSO-treated), allowing detection of effective compounds (FIG. 7, Table 6). An advantage of this method is that compound effects could be interrogated in a label-free manner during multiple time points. However, the analysis allowed some ambiguity in determining accurate areas of the objects, especially when the phenotypic changes were weak or moderate (FIG. 7). The endpoint fluorescent imaging and analysis enabled more robust measurements and compound selection (Tables 5 and 6).
Transmitted light (TL) and fluorescent (FL) images were acquired on the ImageXpress Confocal HT.ai High-Content Imaging System (Molecular Devices) and images analyzed using MetaXpress High-Content Image Analysis Software. Tumoroid images were acquired in TL with approximately 60 μm offset. Zstack images were acquired with the 10× objectives using confocal mode. Best focus projection images were used for TL analysis, and maximum projection images were used for FL analysis. MetaXpress Software or IN Carta Image Analysis Software was used for analysis.

[9] = 3D assay, 7-point concentration curves, 5 days, nuclear count in projection images, read-out: EC50

| SMILES | EC50 (TU-BcX-4IC tumoroids [1]; [9]) | EC50 (TU-BcX-4IC 2D culture [2]) | EC50 (TU-BcX-4IC 3D cultures [4]) | EC50 (TU-BcX-4IC 3D cultures [3]) | EC50 (TU-BcX-4IC 2D culture [5]) | Tumoroids effected by compound in transmitted light images (TU-BcX-4IC tumoroids [8]) | also measured |
| --- | --- | --- | --- | --- | --- | --- | --- |
| C/C=C1\NC(=O)[C@H]2CSSCC/C=C/[C@H](CC(=O)N[C@H](C(C)C)C(=O)N2)OC(=O)[C@H](C(C)C)NC1=O [Romidepsin] |  | ~0.01 µM | < 0.01 µM | ~0.01 µM | ~0.01 µM |  | EC50 (TU-BcX-4IC tumoroids [1]): 0.036 µM |
| COc1cccc2c1C(=O)c1c(O)c3c(c(O)c1C2=O)C[C@@](O)(C(=O)CO)C[C@@H]3O[C@H]1C[C@H](N)[C@H](O)[C@H](C)O1 [doxorubicin] |  |  |  |  |  | effected by compounds | Nuclear count in projection images (qualitative) (TU-BcX-4IC tumoroids [6]; 3D tumoroids, 5 days): decrease in counted nuclei |
| O=C1c2c(O)ccc(O)c2C(=O)c2c(NCCNCCO)ccc(NCCNCCO)c21 [Mitoxantrone] |  |  |  |  |  | effected by compounds | Distance Score (TU-BcX-4IC tumoroids [7]): 6.688; Viability HIT? (TU-BcX-4IC tumoroids [6]): yes |
| COc1cc(OC)cc(N(CCNC(C)C)c2ccc3ncc(-c4cnn(C)c4)nc3c2)c1 [erdafitinib] |  |  |  |  |  | effected by compounds |  |

Further lines, with some results ahead:

| EC50 (TU-BcX-4IC tumoroids [1]; [9]) | EC50 (TU-BcX-4IC 2D culture [2]) | EC50 (TU-BcX-4IC 3D cultures [4]) | SMILES | EC50 (TU-BcX-4IC 3D cultures [3]) | EC50 (TU-BcX-4IC 2D culture [5]) | Tumoroids effected by compound in transmitted light images (TU-BcX-4IC tumoroids [8]) | also measured |
| --- | --- | --- | --- | --- | --- | --- | --- |
| 0.017 µM | 0.01 µM | 0.07 µM | CC(C)C[C@H](NC(=O)[C@H](Cc1ccccc1)NC(=O)c1cnccn1)B(O)O [Bortezomib] | 0.015 µM | 0.01 µM |  | minimal effective concentration (TU-BcX-4IC tumoroids [6]): 0.01 µM; Efficacy at low concentrations (TU-BcX-4IC tumoroids [6]; library screen, tumoroid integrity by nuclear count): efficacy at low concentrations |
| 0.07 µM | 6.27 µM | 8.82 µM | CC(=O)Nc1cccc(-n2c(=O)n(C3CC3)c(=O)c3c(Nc4ccc(I)cc4F)n(C)c(=O)c(C)c32)c1 [Trametinib] | 2.62 µM | 7.33 µM |  |  |
| 0.054 µM | 0.006 µM | 0.141 µM | Cc1[nH]c2ccccc2c1CCNCc1ccc(/C=C/C(=O)NO)cc1 [Panobinostat] | 0.084 µM | 0.046 µM |  |  |
| 0.028 µM |  |  | COc1c(OCCCN2CCOCC2)ccc2c1N=C(NC(=O)c1cnc(N)nc1)N1CCN=C21 [Copanlisib tris-HCl] |  |  | effected by compounds | Distance Score (TU-BcX-4IC tumoroids [7]): 5.147; minimal effective concentration (TU-BcX-4IC tumoroids [6]): 0.1 µM; Viability HIT? (TU-BcX-4IC tumoroids [6]): yes |
